# In patent US5770617A, “Terbenzimidazoles useful as antifungal agents” (Rutgers, The State University of New Jersey, priority 1997, dated 1998):
# Molecular target: T1, human topoisomerase I (Homo sapiens, UniProt P11387)
# T1 construct: made in house; host or cells: Escherichia coli BL21 (DE3) harboring PET1B
# T1 sequence (P11387 1-765): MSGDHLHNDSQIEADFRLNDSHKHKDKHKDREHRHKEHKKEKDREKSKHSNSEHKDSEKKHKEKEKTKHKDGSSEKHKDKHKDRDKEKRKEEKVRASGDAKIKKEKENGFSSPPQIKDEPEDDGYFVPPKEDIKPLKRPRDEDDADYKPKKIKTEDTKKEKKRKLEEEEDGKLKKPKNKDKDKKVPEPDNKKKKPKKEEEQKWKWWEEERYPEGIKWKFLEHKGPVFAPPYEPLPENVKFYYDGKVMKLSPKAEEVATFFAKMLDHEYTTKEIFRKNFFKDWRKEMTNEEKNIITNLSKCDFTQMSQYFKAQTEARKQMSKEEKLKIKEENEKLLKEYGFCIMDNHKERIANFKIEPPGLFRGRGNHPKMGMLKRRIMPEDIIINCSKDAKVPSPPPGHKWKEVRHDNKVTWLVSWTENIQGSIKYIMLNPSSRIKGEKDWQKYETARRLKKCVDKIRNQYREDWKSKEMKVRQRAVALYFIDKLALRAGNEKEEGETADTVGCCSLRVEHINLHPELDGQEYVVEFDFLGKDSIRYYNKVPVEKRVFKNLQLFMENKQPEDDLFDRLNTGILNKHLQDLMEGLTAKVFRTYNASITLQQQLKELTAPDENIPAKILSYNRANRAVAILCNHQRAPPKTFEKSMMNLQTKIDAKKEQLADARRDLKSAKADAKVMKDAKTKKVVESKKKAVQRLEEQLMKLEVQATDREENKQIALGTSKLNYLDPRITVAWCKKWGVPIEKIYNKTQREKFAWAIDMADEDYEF
# Test: Topoisomerase I cleavage assay, human enzyme
# Type: biochemical
# Conditions: recombinant human topoisomerase I
# Protocol: Plasmid YEpG was also purified by the alkali lysis method followed by phenol deproteination and CsCl/ethidium isopycnic centrifugation as described by T. Maniatis et al., Molecular Cloning, A Laboratory Manual, Cold Spring Harbor Labs, N.Y. (1982) at pages 149-185. The end-labeling of the plasmid was accomplished as previously described by L. F. Liu et al., J. Biol. Chem., 258, 15365 (1983). The cleavage assays were performed as previously reported by A. Y. Chen et al., Cancer Res., 53, 1332 (1993). Human topoisomerase I was isolated as a recombinant fusion protein using a T7 expression system.
# Subsequent steps in purification were the same as described previously for purification of recombinant human DNA topoisomerase I (B. Gatto et al., Cancer Res., 56, 2795 (1996)). Briefly, the supernatant was chromatographed directly onto a hydroxyapatite Bio-gel HTP (BioRad Laboratories, Richmond, Calif.) column. Fractions containing relaxation activity were pooled, diluted and then loaded onto a BioRex70 column (BioRad Laboratories, Richmond, Calif.). The column was developed with a linear gradient from 0.2 to 1M KCl. The peak fractions were pooled and dialyzed overnight at 4° C. against 30 mM potassium phosphate, 50% glycerol (v/v), 0.5 mM EDTA, and 1 mM DTT. Recombinant human topoisomerase I was purified from Escherichia coli BL21 (DE3) harboring PET1B as described previously (Gatto et al., Cancer Res., 56, 2795 (1996)).
# DNA topoisomerase I cleavage assays were performed as described by Y.-H. Hsiang et al., J. Biol. Chem., 260, 14873 (1985). YEpG DNA was linearized with BamHI and then 3 '-end-labeled with Klenow polymerase and α[-^32 P]dCTP. Following phenol extraction and ethanol precipitation, the labeled DNA was resuspended in 10 mM Tris, pH 8.0, and 1 mM EDTA. The DNA cleavage assay was done in a reaction mixture (20 μl) containing 40 mM Tris-HCl, pH 7.8, 100 mM KCl, 10 mM MgCl2, 0.5 mM dithiothreitol, 0.5 mM EDTA, 30 μg/ml bovine serum albumin, 20 ng of labeled YEpG DNA, and […] of Aspergillus or human topoisomerase I diluted to various extents. Following incubation at 23° C. for 15 minutes, the reactions were terminated by the addition of SDS (final concentration 1%) and proteinase K (final concentration 200 μg/ml). Proteinase K treatment continued at 37° C. for another 1 hour. The terminated reactions were either alkali-denatured and then loaded (alkaline loading) or loaded directedly in neutral loading buffer (neutral loading) onto a 1% agarose gel in neutral TPE electrophoresis solution. Gel drying and autoradiography were performed as described by Hsiang et al., cited above.
row,SMILES,"sensitivity of human topoisomerase I to poisoning / DNA cleavage with human topoisomerase I, in words"
1,"N#Cc1ccc2[nH]c(-c3ccc4[nH]c(-c5ccc6[nH]cnc6c5)nc4c3)nc2c1 [Compound 11, 5-Cyano-2-[2'-(benzimidazol-5""-yl)benzimidazol-5'-yl]benzimidazole]",sensitive
2,"c1ccc(-c2ccc3[nH]c(-c4ccc5[nH]c(-c6ccc7[nH]cnc7c6)nc5c4)nc3c2)cc1 [Compound 13, 5-Phenyl-2-[2'(benzimidazol-5""-yl)benzimidazol-5'-yl]benzimidazole]",sensitive
3,"CCOc1ccc(-c2nc3cc(-c4nc5cc(N6CCN(C)CC6)ccc5[nH]4)ccc3[nH]2)cc1 [Hoechst 33342, 2'-(4-ethoxyphenyl)-5-(4-methyl-1-piperazinyl)-2,5'-bi-1H-benzimidazole]",sensitive
4,CC[C@@]1(O)C(=O)OCc2c1cc1n(c2=O)Cc2cc3ccccc3nc2-1 [camptothecin],sensitive
